# According to patent US8623902B2, “Microbiocides” (Syngenta Crop Protection, LLC, priority 2008, dated 2014):
# Tests used:
# [1] = system: Mycosphaerella arachidis (early leaf spot of groundnut; Cercospora arachidicola [anamorph]); test: Action against Mycosphaerella arachidis - fungal growth assay; type: cell-based; conditions: 0.002% active ingredient, PDB broth, 24° C., photometric after 6-7 days
# Experimental: (§1) Action Against Mycosphaerella arachidis (Early Leaf Spot of Groundnut; Cercospora arachidicola [anamorph])—Fungal Growth Assay Conidia of the fungus from cryogenic storage are directly mixed into nutrient broth (PDB potato dextrose broth). After placing a (DMSO) solution of the test compounds (0.002% active ingredient) into a microtiter plate (96-well format) the nutrient broth containing the fungal spores is added. The test plates are incubated at 24° C. and the inhibition of growth is measured photometrically after 6-7 days. The activity of a compound is expressed as fungal growth inhibition (0=no growth inhibition, ratings of 80% to 99% mean good to very good inhibition, 100%=complete inhibition).
# [2] = system: Monographella nivalis (anamorph: Fusarium nivale, Microdochium nivale; snow mould); test: Action against Monographella nivalis - fungal growth assay; type: cell-based; conditions: 0.002% active ingredient, PDB broth, 24° C., photometric after 72 hrs
# Experimental: as §1, with “Monographella nivalis (Anamorph: Fusarium nivale, Microdochium nivale; Snow Mould)—Fungal” for “Mycosphaerella arachidis (Early Leaf Spot of Groundnut; Cercospora arachidicola [anamorph])—Fungal”, “DMSO-solution” for “(DMSO) solution”, “72 hrs” for “6-7 days. The activity of a compound is expressed as fungal growth inhibition”
# Septoria tritici = test: Action against Septoria tritici - fungal growth assay; type: cell-based; conditions: Zymoseptoria tritici; 0.002% active ingredient, PDB broth, 24° C., photometric after 72 hrs
# Experimental: as §1, with “Septoria tritici—Fungal” for “Mycosphaerella arachidis (Early Leaf Spot of Groundnut; Cercospora arachidicola [anamorph])—Fungal”, “determined” for “measured”, “72 hrs.” for “6-7 days.”
# Puccinia recondita [3] = test: Protective action against Puccinia recondita (brown rust) on wheat; type: in vivo; conditions: foliar, 192 h, wheat leaf segments sprayed with 0.02% active ingredient, assessed 8 days after inoculation, read-out: preventive fungicidal activity (inhibition)
# Experimental: (§2) Protective Action Against Puccinia recondita (Brown Rust) on Wheat Wheat leaf segments are placed on agar in multiwell plates (24-well format) and sprayed with test solutions (0.02% active ingredient). After drying, the leaf disks are inoculated with a spore suspension of the fungus. After appropriate incubation the activity of a compound is assessed 8 days after inoculation as preventive fungicidal activity.
# Pyrenophora teres = test: Action against Pyrenophora teres (net blotch) on barley; type: in vivo; conditions: foliar, 96 h, barley leaf segments sprayed with 0.02% active ingredient, assessed 4 days after inoculation, read-out: preventive fungicidal activity (inhibition)
# Experimental: as §2, with “Action” for “Protective Action”, “Pyrenophora teres (Net Blotch)” for “Puccinia recondita (Brown Rust)”, “Barley Barley” for “Wheat Wheat”, “4” for “8”
# [4] = system: Erysiphe graminis f.sp. tritici; test: Action against Erysiphe graminis f.sp. tritici (wheat powdery mildew), wheat leaf segments; type: in vivo; conditions: Blumeria graminis, foliar, 168 h; wheat leaf segments sprayed with 0.02% active ingredient, assessed 7 days after inoculation; read-out: preventive fungicidal activity (inhibition)
# Experimental: as §2, with “Action” for “Protective Action”, “Erysiphe graminis f.sp. tritici (Wheat Powdery Mildew)” for “Puccinia recondita (Brown Rust) on Wheat”, “7” for “8”
# Rhizoctonia solani = test: Action against Rhizoctonia solani - fungal growth assay; type: cell-based; conditions: 0.002% active ingredient, PDB broth, 24° C., photometric after 3-4 days
# Experimental: as §1, with “Rhizoctonia solani—Fungal” for “Mycosphaerella arachidis (Early Leaf Spot of Groundnut; Cercospora arachidicola [anamorph])—Fungal”, “Mycelial fragments of a newly grown liquid culture” for “Conidia”, “fungus” for “fungus from cryogenic storage”, “3-4” for “6-7”
# Puccinia recondita [5] = test: Curative action against Puccinia recondita (brown rust) on wheat; type: in vivo; conditions: foliar, wheat leaf segments sprayed with 0.02% active ingredient one day after inoculation, assessed 8 days after inoculation, read-out: curative fungicidal activity (inhibition)
# Experimental: Curative Action Against Puccinia recondita (Brown Rust) on Wheat Wheat leaf segments are placed on agar in multiwell plates (24-well format) and inoculated with a spore suspension of the fungus. One day after inoculation the leaf segments are sprayed with test solutions (0.02% active ingredient). After appropriate incubation the activity of a compound is assessed 8 days after inoculation as curative fungicidal activity.
# Botrytis cinerea = test: Action against Botrytis cinerea - fungal growth assay; type: cell-based; conditions: 0.002% active ingredient, PDB broth, 24° C., photometric after 3-4 days
# Experimental: as §1, with “Botrytis cinerea—Fungal” for “Mycosphaerella arachidis (Early Leaf Spot of Groundnut; Cercospora arachidicola [anamorph])—Fungal”, “3-4” for “6-7”
# [6] = system: Leptosphaeria nodorum (Septoria nodorum); test: Action against Leptosphaeria nodorum (Septoria nodorum; glume blotch) on wheat; type: in vivo; conditions: Parastagonospora nodorum, foliar, 96 h; wheat leaf segments sprayed with 0.02% active ingredient, assessed 4 days after inoculation; read-out: preventive fungicidal activity (inhibition)
# Experimental: as §2, with “Action” for “Protective Action”, “Leptosphaeria nodorum (Septoria nodorum; Glume Blotch)” for “Puccinia recondita (Brown Rust)”, “4” for “8”
melting point,SMILES,inhibition at 0.002 % strength [1],inhibition at 0.002 % strength [2],inhibition at 0.002 % strength (Septoria tritici),inhibition at 0.02 % strength (Puccinia recondita [3]),inhibition at 0.02 % strength (Pyrenophora teres),inhibition at 0.02 % strength [4],inhibition at 0.002 % strength (Rhizoctonia solani),inhibition at 0.02 % strength (Puccinia recondita [5]),inhibition at 0.002 % strength (Botrytis cinerea),inhibition at 0.02 % strength [6]
–,Cn1cc(C(=O)N2CCC[C@H]2COc2c(Cl)cc(Cl)cc2Cl)c(C(F)F)n1 [Compound 1.006],≥ 80%,≥ 50%,≥ 80%,≥ 80%,≥ 80%,≥ 80%,≥ 50%,≥ 80%,≥ 80%,≥ 50%
–,"CO/N=C/c1cc(Cl)c(OC[C@@H]2CCCN2C(=O)c2cn(C)nc2C(F)F)c(Cl)c1 [Compound 1.021, 3,5-dichloro-4-[(S)-1-(3-difluoromethyl-1-methyl-1H-pyrazole-4-carbonyl)-pyrrolidin-2-ylmethoxy]-benzaldehyde O-methyl-oxime]",≥ 80%,–,≥ 80%,≥ 80%,≥ 80%,–,≥ 50%,–,≥ 80%,–
137 to 140 °C,Cc1cccc(C)c1OC[C@@H]1CCCN1C(=O)c1cn(C)nc1C(F)F [Compound 1.068],≥ 80%,–,≥ 80%,≥ 80%,≥ 80%,≥ 80%,≥ 50%,≥ 80%,≥ 80%,≥ 50%
–,"Cn1cc(C(=O)N2CCCC2Cc2c(Cl)cccc2Cl)c(C(F)F)n1 (centres unmarked) [Compound 1.110, [2-(2,6-dichloro-benzyl)-pyrrolidin-1-yl]-(3-difluoromethyl-1-methyl-1H-pyrazol-4-yl)-methanone]",≥ 80%,–,≥ 80%,–,≥ 80%,≥ 50%,–,–,–,–
–,"Cn1cc(C(=O)N2CCC[C@H]2C(F)c2ccc(Cl)cc2)c(C(F)F)n1 (stereo partly drawn) [Compound 1.215, {(S)-2-[(4-chlorophenyl)-fluoro-methyl]-pyrrolidin-1-yl}-(3-difluoromethyl-1-methyl-1H-pyrazol-4-yl)-methanone]",≥ 80%,–,≥ 80%,–,≥ 80%,–,–,–,–,≥ 50%
–,"Cn1cc(C(=O)N2CCC[C@H]2C(=O)c2ccc(Cl)cc2)c(C(F)F)n1 [Compound 1.259, (4-chloro-phenyl)-[(S)-1-(3-difluoromethyl-1-methyl-1H-pyrazole-4-carbonyl)-pyrrolidin-2-yl]-methanone]",–,–,–,–,≥ 50%,–,–,–,–,–
